This is an account of results in patent EP0499337A1, “Use of tetra:hydro-thieno-pyrido-indole derivatives for the treatment of skin disorders” (YAMANOUCHI EUROPE B.V., priority 1991, dated 1992).

Common to all, as to format: cell-based
In experiment [1] the test system is Normal human keratinocytes. Briefly: Cornified envelope formation (keratinocyte differentiation). The settings on record: 4 h plus 48 h exposure, increasing concentrations. On the procedure: Normal human keratinocytes were grown to confluence at low calcium concentration in the presence of 5% FCS, 1 µM isoproterenol and 10 ng EGF per ml. They were first exposed for 4 h to increasing concentrations of test compounds and subsequently reincubated for 48 h in medium containing normal calcium concentration and the same additives, test compounds and [³H]-leucine (1 µCi/ml). Thereafter, both spontaneous and ionophore-induced cornified envelope (CE) formation was determined [King et al. (1986) Exp. Cell. Res., 167: 252].

For another experiment, the system named is HaCaT cells. Briefly: Proliferation of HaCaT cells (incorporation of [3H]-thymidine and [14C]-amino acids, total protein content of attached cells). The settings on record: Homo sapiens, all parameters measured ([3H]-thymidine, [14C]-amino acids, total protein content), 48 h incubation with compound, read-out: IC₅₀ values, inhibition of proliferation. From the text:
HaCaT cells are spontaneously immortalized aneuploid human keratinocytes prepared according to J. Cell. Biol. (1988), 106: 761-771. They can be substituted, however, by SVK₁₄ cells [Taylor-Papadimitriou et al. (1982), J. Cell Differentiat. 11: 169-180] or freshly isolated human keratinocytes [Rheinwald and Green (1975), Cell 6: 331-344].
The HaCaT cells (or the other cells) were routinely grown in Dulbecco's modified essential medium (DMEM) supplemented with 1% antibiotic-antimycotic solution, 4 mM L-glutamine and 10% fetal calf serum in culture flasks (T 175; Falcon Labware, Oxuard, CA, USA). Proliferation tests were carried out with passages 90-95 (for HaCaT-cells) and passages 3-6 (for NHEK's) in 24 well plates (Greiner, Solingen, FRG) as described below. All incubations were performed at 37°C in a humidified atmosphere with 10% CO₂. […]
Proliferation of HaCaT cells was assayed by three different parameters: incorporation of [³H]-thymidine, incorporation of [¹⁴C]-amino acids and the increase of protein content of attached cells. […] Thereafter, the filters were treated with 0.5 ml PROTOSOL®-solution (NEN, Bad Homburg, FRG) at 60°C for 1 h and radioactivity was assessed by liquid scintillation counting. […]
For determination of total protein content, cells were washed twice with methanol. […] Concentration of protein was determined spectrophotometrically using bovine serum albumin as a standard. […]

Experiment [2] concerns human polymorphonuclear leukocytes (PMNL). Briefly: ROS generation from PMNL, lucigenin-amplified chemiluminescence. The settings on record: for pIC50: Homo sapiens, PMNL. As to the method:
Human PMNL were isolated from fresh blood (anticoagulated with sodium citrate) by erythrocyte sedimentation with 1% dextran (Pharmacia, Uppsala, Sweden) centrifugation of the resulting supernatant, followed by hypoosmotic lysis to remove red blood cells. Washed cells were adjusted to 2 x 10⁶ cells/ml in PBS containing fetal calf serum (2%; v/v). Test compounds dissolved in DMSO were diluted with the assay buffer to a final DMSO concentration of 0.5% (v/v).
Then the test compounds (100 µl) were added with subsequent recording for another 16 min period. […] Results were expressed as percent of inhibition or stimulation of the controls (mean of two integrals) in a single experiment.

Each structure is given as a SMILES string. pIC50: −log10 of the molar value. Where two headings read alike, the source gives them in different places.

Regarding `CCN1CCc2[nH]c3cc(F)c4scc(C)c4c3c2C1` [Tiflucarbine, 1-methyl-9-ethyl-4-fluoro-7,8,9,10-tetra:hydro-thieno-[3,2-e]-pyrido-[4,3-b]-indole lactate], the “spontaneous CE formation” value in experiment [1] was “no effect”. Besides, the pIC50 in the experiment on HaCaT cells is 4.77 to 5.00; in experiment [2] (16 min, compound added at peak, 16 min after opsonized zymosan, IC₅₀-values, read-out: Peak CL) it was 4.85; in experiment [2] (30 min preincubation, unstimulated, IC₅₀-values, read-out: Spontaneous CL), 5.14; in experiment [2] (stimulation with opsonized zymosan after preincubation, IC₅₀-values, read-out: Induced CL) it was 5.13; in experiment [2] (unstimulated cells and cells stimulated with opsonized zymosan or PMA, read-out: IC₅₀ values, inhibition of ROS generation), 5.15. For the same compound, the “inhibition of peak chemiluminescence to 50%, fold higher concentrations” value in experiment [2] (both stimuli (opsonized zymosan, PMA), relative to the IC₅₀ of 7 µM) is on record as 2-3 fold. Further, the “induction of the release of reactive oxygen species” value in experiment [2] (human PMNL, unstimulated) is reported as “does not induce the release”.
